# Read-outs that look alike come from different tables or passages of the source.
# Legend:
# [1] = test system: Leishmania donovani axenic amastigote parasites; test: Leishmania donovani axenic amastigote proliferation assay (Cell TiterGlo luminescence, 2 day incubation); assay type: cell-based; conditions: Leishmania donovani, read-out: L. donovani amastigotes EC50
# [2] = test system: L. donovani HU3 strain in mouse peritoneal macrophages; test: Assay for proliferation of Leishmania parasites in infected mouse peritoneal macrophages (SybrGreen staining, high-content imaging, 5 days); assay type: cell-based, Leishmania donovani; conditions: L. donovani in mouse peritoneal macrophages, read-out: L. donovani Macrophage EC50
# [3] = test system: Trypanosoma cruzi amastigotes (Tulahuen strain expressing Lac-Z) cultured in 3T3 fibroblast cells; test: microbe, parasite or virus in culture; assay type: cell-based; conditions: Trypanosoma cruzi, TULAHUEN, Fibroblast, T. cruzi amastigotes in 3T3 fibroblast cells, read-out: T cruzi EC50
# [4] = axenic amastigotes, inhibition of proliferation
# [5] = Leishmania donovani, Peritoneal macrophage, inhibition of proliferation
# [6] = Leishmania donovani, Peritoneal macrophage
Structure (SMILES),"EC50 [1, 4]","EC50 [2, 5]",further results
COC1CC(NC(=O)Nc2ccc(Cl)c(-c3cn4cc(NC(=O)OC(C)C)cnc4n3)c2)C1 (centres unmarked) [Compound 284],> 25000 nM,17 µM,EC50 ([3]; inhibition of proliferation): 13 µM
Cc1nc(C)c(C(=O)Nc2ccc(F)c(-c3cn4cc(CC5OCCO5)cnc4n3)c2)o1 [Compound 614],,,"EC50 ([1]; L. donovani axenic amastigotes): 389 nM; EC50 [2, 6]: > 50 µM"
O=C(Nc1ccc(Cl)c(-c2cn3cc(-c4ccccc4)cnc3n2)c1)N1CCCC1 [Compound 29],36 nM,0.152 µM,
Cc1nc(C)c(C(=O)Nc2ccc(F)c(-c3cn4cc(-c5ncccc5C(F)(F)F)cnc4n3)c2)o1 [Compound 589],,,"EC50 ([1]; L. donovani axenic amastigotes): 22 nM; EC50 [2, 6]: 0.375 µM"
CCN(CC)C(=O)Nc1ccc(Cl)c(-c2cn3cc(NC(=O)OC(C)C)cnc3n2)c1 [Compound 274],862 nM,1.9 µM,
CC(C)OC(=O)Nc1cnc2nc(-c3cc(NC(=O)c4cnc(Cl)[nH]4)ccc3F)cn2c1 [Compound 100],> 25000 nM,> 50 µM,
CC(C)OC(=O)Nc1cnc2nc(-c3cc(NC(=O)N4CCCC4)ccc3F)cn2c1 [Compound 17],410 nM,0.35 µM,
CC(C)OC(=O)Nc1cnc2nc(-c3cc(NC(=O)c4cc5cc(Cl)ccc5[nH]4)ccc3F)cn2c1 [Compound 89],> 25000 nM,> 50 µM,
CC(=O)N[C@@H]1CCN(C(=O)Nc2ccc(Cl)c(-c3cn4cc(NC(=O)OC(C)C)cnc4n3)c2)C1 [Compound 271],> 25000 nM,> 50 µM,
"CC(C)OC(=O)Nc1cnc2nc(-c3cc(NC(=O)c4ccc(Cl)o4)ccc3F)cn2c1 [Compound 64, isopropyl (2-(5-(5-chlorofuran-2-carboxamido)-2-fluorophenyl)imidazo[1,2-a]pyrimidin-6-yl)carbamate]",161 nM,0.469 µM,
CC(C)OC(=O)NCc1cnc2nc(-c3cc(NC(=O)c4ccc(F)o4)ccc3F)cn2c1 [Compound 207],7140 nM,> 40.3 µM,
CNc1ccc(-c2cnc3nc(-c4cc(NC(=O)OCCOC)ccc4Cl)cn3c2)cc1 [Compound 36],560 nM,1.28 µM,
"Cc1nc(C)c(C(=O)Nc2ccc(F)c(-c3cn4cc(C(C)N5CCOCC5)cnc4n3)c2)o1 (centres unmarked) [Compound 618, N-(4-fluoro-3-(6-(1-morpholinoethyl)imidazo[1,2-a]pyrimidin-2-yl)phenyl)-2,4-dimethyloxazole-5-carboxamide]",,,"EC50 ([1]; L. donovani axenic amastigotes): 903 nM; EC50 [2, 6]: 0.691 µM"
Cc1nc(C)c(C(=O)Nc2ccc(F)c(-c3cn4cc(-c5ncccc5C(F)F)cnc4n3)c2)o1 [Compound 588],,,"EC50 ([1]; L. donovani axenic amastigotes): 19 nM; EC50 [2, 6]: 0.459 µM"
CC(C)OC(=O)Nc1cnc2nc(-c3cc(NC(=O)N4CC(S(C)(=O)=O)C4)ccc3F)cn2c1 [Compound 292],> 25000 nM,> 43.5 µM,
"CC(C)OC(=O)Nc1cnc2nc(-c3cc(NC(=O)N4CCCC4)ccc3Cl)c(F)n2c1 [Compound 15, isopropyl (2-(2-chloro-5-(pyrrolidine-1-carboxamido)phenyl)-3-fluoroimidazo[1,2-a]pyrimidin-6-yl)carbamate]",1500 nM,2.95 µM,
Cc1nc(C)c(C(=O)Nc2ccc(F)c(-c3cn4cc(NC(=O)OC(C)C)cnc4n3)c2)o1 [Compound 61],245 nM,0.715 µM,
CN(CC(F)(F)F)C(=O)Nc1ccc(F)c(-c2cn3cc(-c4ccccc4)cnc3n2)c1 [Compound 325],154 nM,0.722 µM,
CC(C)OC(=O)Nc1cnc2nc(-c3cccc(NC(=O)N4CCCC4)c3)cn2c1 [Compound 5],1080 nM,4 µM,
CC(C)OC(=O)Nc1cnc2nc(-c3cc(NC(=O)c4ccno4)ccc3F)cn2c1 [Compound 72],764 nM,8.39 µM,
O=C(Nc1ccc(F)c(-c2cn3cc(-c4ccnc(C(F)(F)F)c4)cnc3n2)c1)N1CCCC1 [Compound 341],2600 nM,9.43 µM,
"COC(=O)CN1CCC(c2cnc3nc(-c4cc(NC(=O)c5oc(C)nc5C)ccc4F)cn3c2)CC1 [Compound 539, methyl 2-(4-(2-(5-(2,4-dimethyloxazole-5-carboxamido)-2-fluorophenyl)imidazo[1,2-a]pyrimidin-6-yl)piperidin-1-yl)acetate]",,,EC50 ([1]; L. donovani axenic amastigotes): 975 nM; EC50 [3]: 0.381 µM
CC(C)OC(=O)Nc1cnc2nc(-c3cc(NC(=O)N4CC(F)(F)C4)ccc3F)cn2c1 [Compound 289],141 nM,0.321 µM,
Cc1nc(C)c(C(=O)Nc2ccc(F)c(-c3cn4cc(CN(C)C)cnc4n3)c2)o1 [Compound 617],,,EC50 ([1]; L. donovani axenic amastigotes): 3440 nM
CC(C)OC(=O)Nc1cnc2nc(-c3cc(NC(=O)N(C)C)ccc3F)cn2c1 [Compound 219],752 nM,2.15 µM,
CC(C)OC(=O)Nc1cnc2nc(-c3cc(NC(=O)N4CCC4C(=O)O)ccc3F)cn2c1 (centres unmarked) [Compound 295],> 25000 nM,> 50 µM,

Structure (SMILES),"EC50 [1, 4]","EC50 [2, 5]",further results
"Cc1nc(C)c(C(=O)Nc2ccc(F)c(-c3cn4cc(CC5CCC5)cnc4n3)c2)o1 [Compound 613, N-(3-(6-(cyclobutylmethyl)imidazo[1,2-a]pyrimidin-2-yl)-4-fluorophenyl)-2,4-dimethyloxazole-5-carboxamide]",,,"EC50 ([1]; L. donovani axenic amastigotes): 30 nM; EC50 [2, 6]: > 50 µM"
CC(C)OC(=O)Nc1cnc2nc(-c3cccc(NC(=O)c4ccco4)c3)cn2c1 [Compound 8],1590 nM,4.7 µM,
Cc1nc(C)c(C(=O)Nc2ccc(F)c(-c3cn4cc(C(C)N(C)C)cnc4n3)c2)o1 (centres unmarked) [Compound 619],,,"EC50 ([1]; L. donovani axenic amastigotes): 6350 nM; EC50 [2, 6]: 0.929 µM"
CC(C)OC(=O)Nc1cnc2nc(-c3cc(NC(=O)c4cnc(Br)s4)ccc3F)cn2c1 [Compound 91],4610 nM,24.1 µM,
CC(C)OC(=O)Nc1cnc2nc(-c3cc(NC(=O)c4cccn4C)ccc3F)cn2c1 [Compound 73],1290 nM,15.2 µM,
"O=C(Nc1ccc(F)c(-c2cn3cc(C(F)(F)F)cnc3n2)c1)N1CC(F)C1 [Compound 587, 3-fluoro-N-(4-fluoro-3-(6-(trifluoromethyl)imidazo[1,2-a]pyrimidin-2-yl)phenyl)azetidine-1-carboxamide]",,,"EC50 ([1]; L. donovani axenic amastigotes): 73 nM; EC50 [2, 6]: 0.647 µM"
CCNC(=O)Nc1ccc(Cl)c(-c2cn3cc(NC(=O)OC(C)C)cnc3n2)c1 [Compound 254],6900 nM,> 18.3 µM,
"Cc1nc(C)c(C(=O)Nc2ccc(F)c(-c3cn4cc(CC(C)C)cnc4n3)c2)o1 [Compound 590, N-(4-fluoro-3-(6-isobutylimidazo[1,2-a]pyrimidin-2-yl)phenyl)-2,4-dimethyloxazole-5-carboxamide]",,,"EC50 ([1]; L. donovani axenic amastigotes): 24 nM; EC50 [2, 6]: 0.045 µM"
Cc1nc(C(=O)Nc2ccc(F)c(-c3cn4cc(NC(=O)OC(C)C)cnc4n3)c2)c(C)o1 [Compound 62],2000 nM,11.6 µM,
CC(C)OC(=O)Nc1cnc2nc(-c3cc(NC(=O)c4cc5cccc(F)c5[nH]4)ccc3F)cn2c1 [Compound 93],> 25000 nM,> 50 µM,
Cc1ncc(C(=O)Nc2ccc(F)c(-c3cn4cc(NC(=O)OC(C)C)cnc4n3)c2)o1 [Compound 95],69 nM,0.188 µM,
CC(C)OC(=O)Nc1cnc2nc(-c3cc(NC(=O)c4ccc(C#N)o4)ccc3F)cn2c1 [Compound 107],84 nM,0.298 µM,
Cc1nc(C)c(C(=O)Nc2ccc(F)c(-c3cn4cc(CC(C)(C)C)cnc4n3)c2)o1 [Compound 591],,,"EC50 ([1]; L. donovani axenic amastigotes): 28 nM; EC50 [2, 6]: > 50 µM"
CC1=C(C(=O)Nc2cnc3nc(-c4cc(NC(=O)N5CCCC5)ccc4F)cn3c2)OCCO1 [Compound 122],80 nM,,
CC(C)OC(=O)Nc1cnc2nc(-c3cc(NC(=O)c4cnc(N)o4)ccc3F)cn2c1 [Compound 94],> 25000 nM,> 50 µM,
CC(C)OC(=O)Nc1cnc2nc(-c3cccc(NC(=O)c4cnccn4)c3)cn2c1 [Compound 7],2530 nM,1.86 µM,
CC(C)OC(=O)Nc1ccc(-c2cnc3nc(-c4cc(NC(=O)N5CCCC5)ccc4F)cn3c2)cc1 [Compound 340],707 nM,2.12 µM,
CC(C)OC(=O)Nc1cnc2nc(-c3cc(NC(=O)c4ccc[nH]4)ccc3F)cn2c1 [Compound 71],1890 nM,3.23 µM,
CON(C)C(=O)Nc1cccc(-c2cn3cc(NC(=O)OC(C)C)cnc3n2)c1 [Compound 14],,,EC50 ([2]; inhibition of proliferation): 3.2 µM
"CC(C)OC(=O)Nc1cnc2nc(-c3cc([N+](=O)[O-])ccc3F)cn2c1 [Compound 19, isopropyl (2-(2-fluoro-5-nitrophenyl)imidazo[1,2-a]pyrimidin-6-yl)carbamate]",19100 nM,46.9 µM,
COCCOC(=O)Nc1cccc(-c2cn3cc(NC(=O)OC(C)C)cnc3n2)c1 [Compound 23],7300 nM,24.7 µM,
CC(C)OC(=O)Nc1cnc2nc(-c3cc(NC(=O)c4ncco4)ccc3F)cn2c1 [Compound 99],2980 nM,9.92 µM,
CC(C)OC(=O)Nc1cnc2nc(-c3cc(NC(=O)c4cocn4)ccc3F)cn2c1 [Compound 65],2040 nM,9.13 µM,
Cc1nc(C)c(C(=O)Nc2ccc(F)c(-c3cn4cc(C5C6CCCC5C6)cnc4n3)c2)o1 (centres unmarked) [Compound 615],,,EC50 ([1]; L. donovani axenic amastigotes): 82 nM
"Cc1nc(C)c(C(=O)Nc2ccc(F)c(-c3cn4cc(CN5CCOCC5)cnc4n3)c2)o1 [Compound 616, N-(4-fluoro-3-(6-(morpholinomethyl)imidazo[1,2-a]pyrimidin-2-yl)phenyl)-2,4-dimethyloxazole-5-carboxamide]",,,"EC50 ([1]; L. donovani axenic amastigotes): 602 nM; EC50 [2, 6]: > 50 µM"
Cc1nc(C)c(C(=O)Nc2ccc(F)c(-c3cn4cc(-c5cnoc5)cnc4n3)c2)o1 [Compound 367],> 25000 nM,> 50 µM,

# From patent publication US20160045505A1, “COMPOUNDS AND COMPOSITIONS FOR THE TREATMENT OF PARASITIC DISEASES” (NOVARTIS AG, priority 2013, published 2016)
